From patent publication US12129229B2, “Amarouciaxanthin A esters and uses thereof” (GAT THERAPEUTICS, S.L., priority 2021, dated 2024)

Experiments:
[1] = ACX-Ac oral kinetic assay: plasma levels after intragastric administration; format: in vivo, mice Hsd:ICR (CD-1); conditions: female mice
Description: Immunocompetent mice from the strain Hsd:ICR (CD-1) (females, 6-7 weeks old from ENVIGO), were housed under sterile conditions at a constant temperature of 20-22° C. and relative humidity (45-65%) under daily cycles of light/darkness (12 hours). Sterilized water and food were available ad libitum.
Amarouciaxanthin A acetate (ACX-Ac) was dissolved at 1 mg/mL in a suitable vehicle and sterilized by filtration. Animals were weighted before the assay to determine the appropriate dispensing volume at 10 mL/kg. Formulation was administered once, intragastrically, at 10 mg/kg. Blood was collected at different time points, as stated in Table 1. It was extracted either through the facial vein or by intracardiac puncture (end points), on recipients containing 5 μL of 0.5 M EDTA.
Blood samples were analyzed by HPLC-MS/MS following proprietary analytical methods and the concentration of ACX in each sample was determined. A noncompartmental pharmacokinetic analysis was carried out using individual plasma concentrations versus sampling times by means of the PKPlus® software version 2.0 (Simulations Plus, Lancaster, CA 93534, USA).

[2] = tested on: rodent models; conditions: Biochem Biophys Res Commun, 2020, 528, 305-310; cited from earlier work

ACX-Ac in plasma samples ([1]; ACX-Ac 10 mg/kg once intragastrically, HPLC-MS/MS, 2 min to 72 h) | area under the concentration-time curve (AUCt) of ACX ([1]; analyte ACX after ACX-Ac 10 mg/kg once intragastrically, noncompartmental analysis) [µM·h] | Cmax ([1]; analyte ACX after ACX-Ac 10 mg/kg once intragastrically, noncompartmental analysis, read-out: maximum observed plasma concentration (Cmax) of ACX) [µM] | Compound | effect on hepatic oxidative stress, inflammation, and fibrosis [2]
not detected | 80.59 | 9.35 | Amarouciaxanthin A acetate [ACX-Ac] | 
 |  |  | CC1=CC(=O)CC(C)(C)[C@@]1(O)CC(=O)/C(C)=C/C=C/C(C)=C/C=C/C=C(C)/C=C/C=C(\C)C=C=C1C(C)(C)C[C@H](O)C[C@@]1(C)O [ACX, Amarouciaxanthin A] | significantly inhibit hepatic oxidative stress, inflammation, and fibrosis
